Test results: patent US20230085307A1, “PYRIDAZINONE COMPOUND AND HERBICIDE” (NISSAN CHEMICAL CORPORATION, priority 2019, published 2023)

The compounds below were run on green foxtail (assay: Test Example 4: herbicidal effect by soil treatment (Table 19, symbol G)). Settings: AAH 320 g/ha.
Type: in vivo, green foxtail (Setaria viridis)
How it was run: (§1)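 Scoring uses the grading scale of an earlier test, three weeks post-application. Treatment consists of spraying a diluted emulsion formulation across the surface of sterilized diluvial soil in which seeds are buried near 1.5 cm deep; boxes are kept in a greenhouse between 25° C. and 30° C.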
With Cc1nn(C)c(=O)c(-c2c(-c3ccc(OCC#N)cc3)sc3ccccc23)c1O [1-137] the “G: green foxtail, herbicidal effect rating” value was 2 (Herbicidal rate of 20% or more and less than 40%).

These compounds were tested on redroot pigweed (assay: Test Example 4: herbicidal effect by soil treatment (Table 19, symbol N)). Settings: AAH 320 g/ha.
Type: in vivo, redroot pigweed (Amaranthus retroflexus)
How it was run: as §1
For Cc1nn(C)c(=O)c(-c2c(-c3ccc(OCC#N)cc3)sc3ccccc23)c1O [1-137], the “N: redroot pigweed, herbicidal effect rating” value was 3 (Herbicidal rate of 40% or more and less than 70%).

These compounds were tested on persian speedwell (assay: Test Example 4: herbicidal effect by soil treatment (Table 19, symbol R)). Settings: AAH 320 g/ha.
Type: in vivo, Persian speedwell (Veronica persica)
How it was run: as §1
With Cc1nn(C)c(=O)c(-c2c(-c3ccc(OCC#N)cc3)sc3ccccc23)c1O [1-137] the “R: persian speedwell, herbicidal effect rating” value was 3 (Herbicidal rate of 40% or more and less than 70%).

Each compound was assayed on lambsquarters (assay: Test Example 4: herbicidal effect by soil treatment (Table 19, symbol O)). Settings: AAH 320 g/ha.
Type: in vivo, lambsquarters (Chenopodium album)
How it was run: as §1
For Cc1nn(C)c(=O)c(-c2c(-c3ccc(OCC#N)cc3)sc3ccccc23)c1O [1-137], the “O: lambsquarters, herbicidal effect rating” value was 2 (Herbicidal rate of 20% or more and less than 40%).

The compounds below were run on barnyard grass (assay: Test Example 5: herbicidal effect by foliage application, plastic box (Table 20, symbol H)). Settings: foliage application, AAH 320 g/ha, three weeks after application.
Type: in vivo, barnyard grass (Echinochloa crus-galli)
How it was run: (§2)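 Post-emergence foliar test in sterilized diluvial soil. Compound applied as water-diluted emulsion at a predetermined rate to 14-day-old plants; evaluation at three weeks.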
In the case of Cc1nn(C)c(=O)c(-c2c(-c3ccc(OCC#N)cc3)sc3ccccc23)c1O [1-137], the “H: barnyard grass, herbicidal effect” value is reported as 1 (Herbicidal rate of 5% or more and less than 20%).

What follows are compounds tested on lambsquarters (assay: Test Example 5: herbicidal effect by foliage application, plastic box (Table 20, symbol O)). Settings: foliage application, AAH 320 g/ha, three weeks after application.
Type: in vivo, lambsquarters (Chenopodium album)
How it was run: as §2
For Cc1nn(C)c(=O)c(-c2c(-c3ccc(OCC#N)cc3)sc3ccccc23)c1O [1-137], the “O: lambsquarters, herbicidal effect” value was 3 (Herbicidal rate of 40% or more and less than 70%).

What follows are compounds tested on windgrass (assay: Test Example 4: herbicidal effect by soil treatment (Table 19, symbol L)). Settings: AAH 320 g/ha.
Type: in vivo, windgrass (Apera spica-venti)
How it was run: as §1
Cc1nn(C)c(=O)c(-c2c(-c3ccc(OCC#N)cc3)sc3ccccc23)c1O [1-137] was tested, and the “L: windgrass, herbicidal effect rating” value was 0 (Herbicidal rate of 5% or less (almost no effect)).

Each compound was assayed on wild oat (assay: Test Example 4: herbicidal effect by soil treatment (Table 19, symbol I)). Settings: AAH 320 g/ha.
Type: in vivo, wild oat (Avena fatua)
How it was run: as §1
For Cc1nn(C)c(=O)c(-c2c(-c3ccc(OCC#N)cc3)sc3ccccc23)c1O [1-137], the “I: wild oat, herbicidal effect rating” value was 0 (Herbicidal rate of 5% or less (almost no effect)).

What follows are compounds tested on wild oat (assay: Test Example 5: herbicidal effect by foliage application, plastic box (Table 20, symbol I)). Settings: foliage application, AAH 320 g/ha, three weeks after application.
Type: in vivo, wild oat (Avena fatua)
How it was run: as §2
For Cc1nn(C)c(=O)c(-c2c(-c3ccc(OCC#N)cc3)sc3ccccc23)c1O [1-137], the “I: wild oat, herbicidal effect” value was 0 (Herbicidal rate of 5% or less (almost no effect)).

The compounds below were run on Italian ryegrass (assay: Test Example 5: herbicidal effect by foliage application, plastic box (Table 20, symbol K)). Settings: foliage application, AAH 320 g/ha, three weeks after application.
Type: in vivo, Italian ryegrass (Lolium multiflorum)
How it was run: as §2
With Cc1nn(C)c(=O)c(-c2c(-c3ccc(OCC#N)cc3)sc3ccccc23)c1O [1-137] the “K: Italian ryegrass, herbicidal effect” value was 0 (Herbicidal rate of 5% or less (almost no effect)).

What follows are compounds tested on persian speedwell (assay: Test Example 5: herbicidal effect by foliage application, plastic box (Table 20, symbol R)). Settings: foliage application, AAH 320 g/ha, three weeks after application.
Type: in vivo, Persian speedwell (Veronica persica)
How it was run: as §2
With Cc1nn(C)c(=O)c(-c2c(-c3ccc(OCC#N)cc3)sc3ccccc23)c1O [1-137] the “R: persian speedwell, herbicidal effect” value was 4 (Herbicidal rate of 70% or more and less than 90%).

The compounds below were run on chickweed (assay: Test Example 5: herbicidal effect by foliage application, plastic box (Table 20, symbol P)). Settings: foliage application, AAH 320 g/ha, three weeks after application.
Type: in vivo, common chickweed (Stellaria media)
How it was run: as §2
For Cc1nn(C)c(=O)c(-c2c(-c3ccc(OCC#N)cc3)sc3ccccc23)c1O [1-137], the “P: chickweed, herbicidal effect” value was 3 (Herbicidal rate of 40% or more and less than 70%).

What follows are compounds tested on blackgrass (assay: Test Example 4: herbicidal effect by soil treatment (Table 19, symbol J)). Settings: AAH 320 g/ha.
Type: in vivo, blackgrass (Alopecurus myosuroides)
How it was run: as §1
In the case of Cc1nn(C)c(=O)c(-c2c(-c3ccc(OCC#N)cc3)sc3ccccc23)c1O [1-137], the “J: blackgrass, herbicidal effect rating” value is reported as 0 (Herbicidal rate of 5% or less (almost no effect)).

The compounds below were run on chickweed (assay: Test Example 4: herbicidal effect by soil treatment (Table 19, symbol P)). Settings: AAH 320 g/ha.
Type: in vivo, common chickweed (Stellaria media)
How it was run: as §1
With Cc1nn(C)c(=O)c(-c2c(-c3ccc(OCC#N)cc3)sc3ccccc23)c1O [1-137] the “P: chickweed, herbicidal effect rating” value was 0 (Herbicidal rate of 5% or less (almost no effect)).

What follows are compounds tested on green foxtail (assay: Test Example 5: herbicidal effect by foliage application, plastic box (Table 20, symbol G)). Settings: foliage application, AAH 320 g/ha, three weeks after application.
Type: in vivo, green foxtail (Setaria viridis)
How it was run: as §2
Cc1nn(C)c(=O)c(-c2c(-c3ccc(OCC#N)cc3)sc3ccccc23)c1O [1-137] was tested, and the “G: green foxtail, herbicidal effect” value was 0 (Herbicidal rate of 5% or less (almost no effect)).

The compounds below were run on blackgrass (assay: Test Example 5: herbicidal effect by foliage application, plastic box (Table 20, symbol J)). Settings: foliage application, AAH 320 g/ha, three weeks after application.
Type: in vivo, blackgrass (Alopecurus myosuroides)
How it was run: as §2
Cc1nn(C)c(=O)c(-c2c(-c3ccc(OCC#N)cc3)sc3ccccc23)c1O [1-137] was tested, and the “J: blackgrass, herbicidal effect” value was 0 (Herbicidal rate of 5% or less (almost no effect)).

The compounds below were run on windgrass (assay: Test Example 5: herbicidal effect by foliage application, plastic box (Table 20, symbol L)). Settings: foliage application, AAH 320 g/ha, three weeks after application.
Type: in vivo, windgrass (Apera spica-venti)
How it was run: as §2
Cc1nn(C)c(=O)c(-c2c(-c3ccc(OCC#N)cc3)sc3ccccc23)c1O [1-137] was tested, and the “L: windgrass, herbicidal effect” value was 0 (Herbicidal rate of 5% or less (almost no effect)).

Each compound was assayed on velvetleaf (assay: Test Example 5: herbicidal effect by foliage application, plastic box (Table 20, symbol M)). Settings: foliage application, AAH 320 g/ha, three weeks after application.
Type: in vivo, velvetleaf (Abutilon theophrasti)
How it was run: as §2
Cc1nn(C)c(=O)c(-c2c(-c3ccc(OCC#N)cc3)sc3ccccc23)c1O [1-137] was tested, and the “M: velvetleaf, herbicidal effect” value was 3 (Herbicidal rate of 40% or more and less than 70%).

These compounds were tested on Chinese sprangletop (assay: Test Example 3: herbicidal effect by foliage application, Wagner pot (Table 18, symbol D)). Settings: 320 g/ha.
Type: in vivo, chinese sprangletop (Leptochloa chinensis)
How it was run: (§3)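 Plants were sown in alluvial soil held under 0.1–0.5 cm standing water and grown 14 days in a greenhouse at 25–30 °C. An emulsifiable formulation, water-diluted to the set dose, was then sprayed onto the foliage, and effects were scored three weeks later using previously defined criteria.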
For Cc1nn(C)c(=O)c(-c2c(-c3ccc(OCC#N)cc3)sc3ccccc23)c1O [1-137], the “herbicidal effect on D (Chinese sprangletop), rating 0-5” value was 3 (Herbicidal rate of 40% or more and less than 70%).

Each compound was assayed on southern crabgrass (assay: Test Example 4: herbicidal effect by soil treatment (Table 19, symbol F)). Settings: AAH 320 g/ha.
Type: in vivo, southern crabgrass (Digitaria ciliaris)
How it was run: as §1
With Cc1nn(C)c(=O)c(-c2c(-c3ccc(OCC#N)cc3)sc3ccccc23)c1O [1-137] the “F: southern crabgrass, herbicidal effect rating” value was 0 (Herbicidal rate of 5% or less (almost no effect)).

What follows are compounds tested on barnyard grass (assay: Test Example 3: herbicidal effect by foliage application, Wagner pot (Table 18, symbol H)). Settings: 320 g/ha.
Type: in vivo, barnyard grass (Echinochloa crus-galli)
How it was run: as §3
In the case of Cc1nn(C)c(=O)c(-c2c(-c3ccc(OCC#N)cc3)sc3ccccc23)c1O [1-137], the “herbicidal effect on H (barnyard grass), rating 0-5” value is reported as 3 (Herbicidal rate of 40% or more and less than 70%).

Each compound was assayed on Italian ryegrass (assay: Test Example 4: herbicidal effect by soil treatment (Table 19, symbol K)). Settings: AAH 320 g/ha.
Type: in vivo, Italian ryegrass (Lolium multiflorum)
How it was run: as §1
In the case of Cc1nn(C)c(=O)c(-c2c(-c3ccc(OCC#N)cc3)sc3ccccc23)c1O [1-137], the “K: Italian ryegrass, herbicidal effect rating” value is reported as 0 (Herbicidal rate of 5% or less (almost no effect)).

These compounds were tested on redroot pigweed (assay: Test Example 5: herbicidal effect by foliage application, plastic box (Table 20, symbol N)). Settings: foliage application, AAH 320 g/ha, three weeks after application.
Type: in vivo, redroot pigweed (Amaranthus retroflexus)
How it was run: as §2
In the case of Cc1nn(C)c(=O)c(-c2c(-c3ccc(OCC#N)cc3)sc3ccccc23)c1O [1-137], the “N: redroot pigweed, herbicidal effect” value is reported as 0 (Herbicidal rate of 5% or less (almost no effect)).

These compounds were tested on barnyard grass (assay: Test Example 4: herbicidal effect by soil treatment (Table 19, symbol H)). Settings: AAH 320 g/ha.
Type: in vivo, barnyard grass (Echinochloa crus-galli)
How it was run: as §1
For Cc1nn(C)c(=O)c(-c2c(-c3ccc(OCC#N)cc3)sc3ccccc23)c1O [1-137], the “H: barnyard grass, herbicidal effect rating” value was 0 (Herbicidal rate of 5% or less (almost no effect)).

Each compound was assayed on southern crabgrass (assay: Test Example 5: herbicidal effect by foliage application, plastic box (Table 20, symbol F)). Settings: foliage application, AAH 320 g/ha, three weeks after application.
Type: in vivo, southern crabgrass (Digitaria ciliaris)
How it was run: as §2
In the case of Cc1nn(C)c(=O)c(-c2c(-c3ccc(OCC#N)cc3)sc3ccccc23)c1O [1-137], the “F: southern crabgrass, herbicidal effect” value is reported as 0 (Herbicidal rate of 5% or less (almost no effect)).

What follows are compounds tested on velvetleaf (assay: Test Example 4: herbicidal effect by soil treatment (Table 19, symbol M)). Settings: AAH 320 g/ha.
Type: in vivo, velvetleaf (Abutilon theophrasti)
How it was run: as §1
For Cc1nn(C)c(=O)c(-c2c(-c3ccc(OCC#N)cc3)sc3ccccc23)c1O [1-137], the “M: velvetleaf, herbicidal effect rating” value was 0 (Herbicidal rate of 5% or less (almost no effect)).

Each compound was assayed on rice flat sedge (assay: Test Example 3: herbicidal effect by foliage application, Wagner pot (Table 18, symbol E)). Settings: 320 g/ha.
Type: in vivo, rice flat sedge (Cyperus iria)
How it was run: as §3
Cc1nn(C)c(=O)c(-c2c(-c3ccc(OCC#N)cc3)sc3ccccc23)c1O [1-137] was tested, and the “herbicidal effect on E (rice flat sedge), rating 0-5” value was 5 (Herbicidal rate of 90% or more (almost completely withered)).
